Data from patent publication US7022696B2, “Piperazino-derivatives and their use as PDE4 inhibitor” (Altana Pharma AG, priority 2001, dated 2006).

| melting point | SMILES |
| --- | --- |
| 185 to 186 °C | COc1ccc(C2=NN(c3ccc(C(=O)N4CCN(c5ccccc5)CC4)cc3)C(=O)[C@@H]3CC=CC[C@H]23)c2c1OC(C)(C)C2 [Compound 10, (4aS,8aR)-4-(7-Methoxy-2,2-dimethyl-2,3-dihydro-benzofuran-4-yl)-2-{4-[1-(4-phenyl-piperazin-1-yl)-methanoyl]-phenyl}-4a,5,8,8a-tetrahydro-2H-phthalazin-1-one] |
| 247 to 249 °C | COc1ccc(C2=NN(Cc3ccc(C(=O)N4CCN(CCCN(C)C)CC4)cc3)C(=O)[C@H]3CC=CC[C@@H]23)c2c1OC(C)(C)C2.Cl.Cl (relative stereo) |
| 181 to 182 °C | CCOc1ccc(C2=NN(c3ccc(S(=O)(=O)N4CCN(c5ccccn5)CC4)cc3)C(=O)[C@H]3CC=CC[C@@H]23)cc1OCC (relative stereo) [Compound 6, (cis)-4-(3,4-Diethoxyphenyl)-2-[4-(4-pyridin-2-yl-piperazine-1-sulfonyl)-phenyl]-4a,5,8,8a-tetrahydro-2H-phthalazin-1-one] |
| 223 to 226 °C | COc1ccc(C2=NN(c3ccc(C(=O)N4CCN(CCCN(C)C)CC4)cc3)C(=O)[C@@H]3CC=CC[C@H]23)cc1OC.Cl.Cl [Compound 13, (4aS,8aR)-4-(3,4-Dimethoxyphenyl)-2-(4-{1-[4-(3-dimethylamino-propyl)-piperazin-1-yl]-methanoyl}-phenyl)-4a,5,8,8a-tetrahydro-2H-phthalazin-1-one dihydrochloride] |
| 121 to 123 °C | CCOc1ccc(C2=NN(c3ccc(C(=O)N4CCN(c5ccc(C(F)(F)F)cn5)CC4)cc3)C(=O)[C@@H]3CC=CC[C@H]23)cc1OCC [Compound 29, (4aS,8aR)-4-(3,4-Diethoxy-phenyl)-2-(4-{1-[4-(5-trifluoromethyl-pyridin-2-yl)-piperazin-1-yl]-methanoyl}-phenyl)-4a,5,8,8a-tetrahydro-2H-phthalazin-1-one] |
| 183 to 184 °C | CCOc1ccc(C2=NN(c3ccc(C(=O)N4CCN(c5ccccn5)CC4)cc3)C(=O)[C@@H]3CC=CC[C@H]23)cc1OCC [Compound 2, (4aS,8aR)-4-(3,4-Diethoxyphenyl)-2-{4-[1-(4-pyridin-2-yl-piperazin-1-yl)-methanoyl]-phenyl}-4a,5,8,8a-tetrahydro-2H-phthalazin-1-one] |
| 115 to 118 °C | COc1ccc(C2=NN(c3ccc(C(=O)N4CCN(c5nc(-c6ccccc6C)ns5)CC4)cc3)C(=O)[C@@H]3CC=CC[C@H]23)cc1OC.Cl [Compound 19, (4aS,8aR)-4-(3,4-Dimethoxyphenyl)-2-(4-{1-[4-(3-o-tolyl-1,2,4-thiadiazol-5-yl)-piperazin-1-yl]-methanoyl}-phenyl)-4a,5,8,8a-tetrahydro-2H-phthalazin-1-one hydrochloride] |
| 168 to 169 °C | CCOc1ccc(C2=NN(c3ccc(C(=O)N4CCN(c5nc(-c6ccccc6)ns5)CC4)cc3)C(=O)[C@@H]3CC=CC[C@H]23)cc1OCC [Compound 17, (4aS,8aR)-4-(3,4-Diethoxyphenyl)-2-(4-{1-[4-(3-phenyl-1,2,4-thiadiazol-5-yl)-piperazin-1-yl]-methanoyl}-phenyl)-4a,5,8,8a-tetrahydro-2H-phthalazin-1-one] |
| 255 °C (dec.) | CCOc1ccc(C2=NN(c3ccc(C(=O)N4CCN(CCN5CCOCC5)CC4)cc3)C(=O)[C@@H]3CC=CC[C@H]23)cc1OCC.Cl.Cl |
| 230 to 231 °C | COc1ccc(C2=NN(c3ccc(C(=O)N4CCN(C/C=C/c5ccccc5)CC4)cc3)C(=O)[C@@H]3CC=CC[C@H]23)c2c1OC(C)(C)C2.Cl [Compound 8, (4aS,8aR)-4-(7-methoxy-2,2-dimethyl-2,3-dihydro-benzofuran-4-yl)-2-(4-{1-[4-((E)-3-phenyl-allyl)-piperazin-1-yl]-methanoyl}-phenyl)-4a,5,8,8a-tetrahydro-2H-phthalazin-1-one hydrochloride] |
| 83 to 85 °C | CCOc1ccc(C2=NN(c3ccc(C(=O)N4CCN(Cc5ccncc5)CC4)cc3)C(=O)[C@@H]3CC=CC[C@H]23)cc1OCC.Cl.Cl [Compound 25, (4aS,8aR)-4-(3,4-Diethoxy-phenyl)-2-{4-[1-(4-pyridin-4-ylmethyl-piperazin-1-yl)-methanoyl]-phenyl}-4a,5,8,8a-tetrahydro-2H-phthalazin-1-one dihydrochloride] |
| 143 to 144 °C | CCOc1ccc(C2=NN(c3ccc(C(=O)N4CCN(C=O)CC4)cc3)C(=O)[C@@H]3CC=CC[C@H]23)cc1OCC [Compound 5, 4-(1-{4-[(4aS,8aR)-4-(3,4-Diethoxyphenyl)-1-oxo-4a,5,8,8a-tetrahydro-1H-phthalazin-2-yl]-phenyl}-methanoyl)-piperazine-1-carbaldehyde] |
| 131 to 133 °C | CCOc1ccc(C2=NN(c3ccc(C(=O)N4CCN(CC5CCCO5)CC4)cc3)C(=O)[C@@H]3CC=CC[C@H]23)cc1OCC.Cl (stereo partly drawn) [Compound 23, (4aS,8aR)-4-(3,4-Diethoxy-phenyl)-2-(4-{1-[4-(tetrahydro-furan-2-ylmethyl)-piperazin-1-yl]-methanoyl}-phenyl)-4a,5,8,8a-tetrahydro-2H-phthalazin-1-one hydrochloride] |
| 210 to 211 °C | COc1ccc(C2=NN(Cc3ccc(C(=O)N4CCN(CCN5CCOCC5)CC4)cc3)C(=O)[C@H]3CC=CC[C@@H]23)c2c1OC(C)(C)C2.Cl.Cl (relative stereo) |
| 164 to 167 °C | CCOc1ccc(C2=NN(c3ccc(C(=O)N4CCN(c5ccncc5)CC4)cc3)C(=O)[C@@H]3CC=CC[C@H]23)cc1OCC.Cl [Compound 27, (4aS,8aR)-4-(3,4-Diethoxy-phenyl)-2-{4-[1-(4-pyridin-4-yl-piperazin-1-yl)-methanoyl]-phenyl}-4a,5,8,8a-tetrahydro-2H-phthalazin-1-one hydrochloride] |
